Test results reported in patent publication US5504097A, “N-hydroxyureas as 5-lipoxygenase inhibitors and inhibitors of oxidative modification of low density lipoprotein” (American Home Products Corporation, priority 1995, dated 1996).

Legend:
[1] = biological target: T1, 5-Lipoxygenase (Homo sapiens, UniProt P09917); test: Inhibition of 5-Lipoxygenase in Human Whole Blood (LTB4, calcium ionophore A23187); assay type: cell-based
T1 construct: from tissue; host or cells: whole blood of male human donors (endogenous enzyme of the leukocytes)
T1 sequence (P09917 1-674): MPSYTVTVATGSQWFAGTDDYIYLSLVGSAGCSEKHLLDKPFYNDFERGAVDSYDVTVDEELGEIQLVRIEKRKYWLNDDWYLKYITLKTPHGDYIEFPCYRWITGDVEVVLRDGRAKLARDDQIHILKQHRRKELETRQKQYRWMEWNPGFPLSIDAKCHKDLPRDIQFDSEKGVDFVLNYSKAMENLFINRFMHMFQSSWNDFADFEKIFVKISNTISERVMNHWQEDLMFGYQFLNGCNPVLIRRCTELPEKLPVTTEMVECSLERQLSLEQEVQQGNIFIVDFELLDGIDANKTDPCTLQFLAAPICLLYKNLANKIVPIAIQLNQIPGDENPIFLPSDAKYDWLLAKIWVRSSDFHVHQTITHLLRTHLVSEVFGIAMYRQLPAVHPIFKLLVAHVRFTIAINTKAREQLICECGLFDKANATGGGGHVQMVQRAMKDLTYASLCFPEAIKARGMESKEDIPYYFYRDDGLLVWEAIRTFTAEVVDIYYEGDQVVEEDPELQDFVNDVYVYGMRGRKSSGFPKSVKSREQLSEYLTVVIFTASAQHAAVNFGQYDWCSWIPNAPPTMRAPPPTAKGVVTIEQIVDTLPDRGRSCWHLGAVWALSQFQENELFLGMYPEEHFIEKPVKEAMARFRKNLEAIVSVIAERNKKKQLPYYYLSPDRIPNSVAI
Experimental: 1. Inhibition of 5-Lipoxygenase in Human Whole Blood
Blood is obtained in 50-100 ml quantities from male donors. White blood cell counts and differentials are made. Two ml of blood are placed in a 15 ml polypropylene test tube. Test compounds are solubilized in dimethylsulfoxide and diluted in 1:10 in 10% bovine serum albumin in phosphate buffered saline, pH 7.4 resulting in a final dimethylsulfoxide concentration of 0.1% in the blood. Then, solutions of test compounds are added to the blood in a shaking water bath at 37° C. for 10 minutes prior to the addition of 30 μM calcium ionophore (A23187, Sigma). After ionophore administration, whole blood samples are mixed and incubated for 20 minutes at 37° C. in a shaking water bath. Incubation is terminated by placing samples in an ice bath and immediately adding ethylene glycol-bis-(β-aminoethyl ether)-N, N,N',N'-tetraacetic acid (10 mM). Samples are mixed and centrifuged at 1200× g for 15 minutes at 4° C. Preparation of samples for evaluation by RIA or ELISA is carried out by the following protocol. Plasma is removed from sample tubes, placed in 15 ml polypropylene test tubes containing 8 ml methanol, and then vortexed to precipitate protein. Samples are stored at -70° C. overnight. The next day, samples are centrifuged at 200× g for 15 minutes at 4° C. to pellet the precipitate. Samples are dried in a Savant SpeedVac Concentrator, Model SVC 200H, reconstituted to original volume with ice cold RIA or ELISA buffer, and stored at -70° C. until assayed. The assay for eicosanoids (LTB4, T×B2, and PGE2) is performed as described by the manufacturer of the ^3 H!-RIA kit or ELISA kit (LTB4 -Amersham, T×B2 and PGE2 -Caymen Chemical).
The total eicosanoid level in 2 ml of blood is calculated and reported as ng/10^6 neutrophils. Significance is determined by a one-way analysis of variance with least significant difference (LSD) comparisons to control (p≤0.05) and IC50 's (μM) are determined by regression analysis (Finney, 1978). Drug effects are expressed as percent change from control values.

[2] = tested on: Lipoxygenase; test: Ex-Vivo Measurement of Lipoxygenase Inhibition in Orally Dosed Rats (LTB4 in A23187-stimulated blood); set-up: species or system Male Sprague Dawley rats; conditions: 10 mg/kg, p.o.
Experimental: 2. Ex-Vivo Measurement of Lipoxygenase Inhibition in Orally Dosed Rats
After an interval of 3 or 6 hours, the rats were anesthetized with metofane (n=4/group) and blood collected in heparinized tubes. White blood cell counts and differentials were made. One ml of blood from each animal was placed in a 5 ml plastic tube in a shaker bath at 37° C. A23187 at a final concentration of 10 μM was added to the blood and the blood vortexed and incubated for 15 min at 37° C. with gentle shaking. Incubation was terminated by vortexing sample and centrifuging immediately at 1200× G for 15 min at 4° C. The plasma was transferred to 15 ml plastic tubes each containing 8 ml of methanol to precipitate protein followed by vortexing. The samples were stored at -70° C. overnight and the next day the samples were centrifuged at 800× G for 15 min to pellet the precipitate. The samples were dried in a Savant SpeedVac Concentrator Model SVC 200H and reconstituted to the original volume with cold RIA or ELISA buffer. The reconstituted samples were stored at -70° C. until assayed. The assay for LTB4 was performed according to the directions of the ^3 H!RIA kit or ELISA kit (Seragen). The total metabolite level in 1 ml of blood is calculated and reported as ng/10^6 neutrophils. Significance is determined by a one-way analysis of variance with LSD comparisons to control (p≤0.05).

[3] = tested on: Low Density Lipoprotein; test: Inhibition of Copper Ion Mediated Oxidation of Low Density Lipoprotein; assay type: biochemical; conditions: Cu^+2 mediated oxidation of rabbit or monkey LDL
Experimental: 5. Inhibition of Copper Ion Mediated Oxidation of Low Density Lipoprotein
In this in vitro assay, the inhibition of Cu^+2 mediated oxidation of rabbit or monkey LDL by an invention compound is determined spectrophotometricallly. Oxidation of LDL results in the formation of LDL-diene which absorbs light at 532 nm. Inhibition of oxidation of LDL leads to a decrease in absorbance at 532 nm.
Rabbit or monkey LDL is prepared according to the procedures of Havel, Eder and Gragdon, "The Distribution and Chemical Composition of Ultracentrifugally Separated Lipoproteins in Human Serum,: J, Clin. Invest. 34, 1345-1353 (1955) and Parhtasarathy, Wieland and Steriberg, "A Role for Endothelial Cell Lipoxygenase in the Oxidative Modification of Low Density Lipoprotein," Proc, Natl. Acad. Sci. USA 86, 1046-1050 (1989). Test compound solutions are prepared by dissolving the invention compounds in ethanol at concentrations up to 248 μM. The medium used is Dulbecco's phosphate buffered saline containing 0.5 mg/ml bovine serum albumin. For standards, 0 to 10 μl of an aqueous solution of 1,1,3,3-tetraethoxypropane (1 μmol/ml H2 O) in 4.1 ml of medium is used.
Test compound solution (100 μl) is added to 4 ml of medium in incubation tubes. To each tube is added 10 μl of LDL solution and 25 μl of aqueous copper sulfate solution (1.32 mg/ml H2 O ). The tubes are incubated at 37° C. for 90 minutes and the oxidation reaction quenched by addition of 1 ml of thiobarbituric acid solution (0.67% in 50% acetic acid). The tubes are heated at 90° C. for 1 hour, then chilled in an ice bath and the chromophore extracted into 2 ml of n-butanol. Absorbence is read at 532 nm and the results are reported as nmols of malondialdehyde equivalents.
Significant differences (p<0.05) are determined by the Dunnett T-test or by the Student-Newman-Keuls Test for significant differences between means. The assay is conducted using several concentrations I! of the inhibitor test compounds. The LDL solution concentrations at different experiments were either 1.5 mg/ml, 2.5 mg/ml or 10.3 mg/ml. The IC50 is determined by non-linear regression, plotting log I! vs. % inhibition. (Reference: K. Yagi, Biochemical Medicine 15, 212-216 (1976)).

[4] = tested on: LTB4; test: Reverse Passive Arthus Reaction (pleurisy), LTB4 in pleural exudate; assay type: in vivo, male Lewis rats; conditions: 25 mg/kg, p.o.
Experimental: 3. Reverse Passive Arthus Reaction
A reverse passive Arthus reaction is induced in the pleural cavity of male Lewis rats (150-200 g; fasted overnight prior to use) by the intravenous administration of bovine serum albumin (BSA; 4 mg/0.2 ml) followed 30 minutes later by the injection of rabbit anti-BSA (1 mg/2.0 ml; lyophilized IgG fraction; Organon Teknika, West Chester, Pa.) into the right pleural space under halothane anesthesia. Drugs or vehicle (0.5% Tween-80) control are administered orally in a volume of 1 ml/100 g body weight at 1 hour prior to the anti-BSA. Animals are sacrificed at either the time of peak eicosanoid production (i.e. 5 minutes after anti-BSA for immunoreactive T×B2, 10 minutes for immunoreactive LTB4, 20 minutes for immunoreactive LTC4) or at the time of peak neutrophil infiltration (4 hours after anti-BSA) by CO2 inhalation. The pleural cavity is then exposed, the fluid exudate removed by gentle vacuum aspiration and the volume of exudate is recorded. For the determination of cellular infiltration, the pleural cavity is rinsed with 3 ml of 0.1% EDTA in sterile saline, and the recovered wash is pooled with the exudate. Cell number is determined on a model ZBI Coulter counter. For determination of eicosanoid production, undiluted pleural exudate is microfuged and the supernatant is extracted with ethanol (8-10 times volume). Extracts are either stored at -20° C., or are evaporated to dryness under a stream of N2 and reconstituted in radioimmunoassay (RIA) buffer.
Eicosanoids are quantitated by RIA according to the procedure specified by the RIA kit manufacturer (Advanced Magnetics, Cambridge, MA). Briefly, 100 μl of ^3 H-labeled eicosanoid and 100 μl of specific antibody are sequentially added to 100 μl of extracted pleural exudate in BGG-phosphate buffer which contains 0.01M phosphate, 0.1% bovine gamma globulin and 0.1% sodium azide at pH 7.0. Antibody-bound eicosanoid is separated from unbound eicosanoid by the addition of 750 μl of dextran (0.4%)-coated charcoal (Norit A) containing 0.1% sodium azide. The mixture is centrifuged at 2000 RPM at 5° C. for 15 minutes to pellet the charcoal and adsorbed unbound eicosanoid. Antibody-bound labeled eicosanoid is quantitated by counting in a liquid scintillation counter, and is correlated to concentration by a standard curve.

[5] = tested on: LDL; conditions: in words; cited from earlier work
[6] = tested on: LDL; conditions: in words; cited from earlier work; remark: listed apart in the source
[7] = tested on: atherosclerotic lesions; conditions: WHHL rabbits, in words; cited from earlier work

SMILES	inhibition at 1 µM [1] [%]	% Inhibition of LTB4 ([2]; pretreatment period 3 hr) [%]	% Inhibition of LTB4 ([2]; pretreatment period 6 hr) [%]	IC50 [3] [nM]	inhibition at 10 µM [1] [%]	% Inhibition of LTB4 Synthesis [4] [%]	other results
Cc1oc(-c2ccccc2)nc1COc1ccc(CN(O)C(N)=O)cc1Cl [Example 2, 1-3-Chloro-4-(5-methyl-2-phenyl-oxazol-4-ylmethoxy)-benzyl!-1-hydroxy-urea]	31	68	72	560			
Cc1oc(-c2ccccc2)nc1COc1ccc(CN(O)C(N)=O)c(Cl)c1 [Example 3, 1-2-Chloro-4-(5-methyl-2-phenyl-oxazol-4-ylmethoxy)-benzyl!-1-hydroxy-urea]		40			80	26	
COc1cc(CN(O)C(N)=O)ccc1OCc1nc(-c2ccccc2)oc1C [Example 4, 1-Hydroxy-1-3-methoxy-4-(5-methyl-2-phenyl-oxazol-4-ylmethoxy)-benzyl!-urea]				810	81		
Cc1oc(-c2ccccc2)nc1COc1ccc(CN(O)C(N)=O)cc1F [Example 5, 1-3-Fluoro-4-(5-methyl-2-phenyl-oxazol-4-ylmethoxy)-benzyl!-1-hydroxy-urea]	47	66	68			28	
NC(=O)N(O)Cc1ccc(OCc2csc(-c3ccc(Cl)cc3)n2)cc1 [Example 14, 1-4-2-(4-chloro-phenyl)-thiazol-4-ylmethoxy!-benzyl!-1-hydroxy-urea]	71			1100			
CC(C)(Sc1cc(C(C)(C)C)c(O)c(C(C)(C)C)c1)Sc1cc(C(C)(C)C)c(O)c(C(C)(C)C)c1 [Probucol]							inhibition of cell mediated oxidative modification of LDL [5]: inhibits; inhibition of Cu^+2 mediated oxidative modification of LDL [6]: inhibits; inhibition of formation of atherosclerotic lesions [7]: inhibit the formation of atherosclerotic lesions
